Common to all, as to assay: DTP human tumour cell line panel, 48 h
For assay [1], the system named is IGROV1 ovarian.
The subject of assay [2] is HCT-116 colon.
In assay [3] the test system is K-562 leukemia.
Assay [4] relates to ACHN renal.
The test system of assay [5] is LOX IMVI melanoma.
The test system of assay [6] is KM12 colon.
The subject of assay [7] is HOP-62 NSCLC.
The test system of assay [8] is SF-295 CNS.
Assay [9] relates to UACC-62 melanoma.
The subject of assay [10] is SR leukemia.

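Method: 48-hour compound exposure of cells in 96-well plates, five concentrations, linear interpolation of endpoints. GI50 is the concentration that inhibits growth by half. At the TGI there is no net growth.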 Where a SMILES comes first, the peptide text is derived from it. [ ]: non-standard residue; d: D form. Phe(4-Cl) = N[CH](Cc1ccc(Cl)cc1)C(=O)O

The term TGI denotes the concentration giving total growth inhibition. Low values mean greater sensitivity of the cells, high ones lower sensitivity of the cells. Turning to `CC[O-].CC[O-].O=C1c2ccccc2C(=O)c2c(O)ccc([O-])c21.O=C1c2ccccc2C(=O)c2c(O)ccc([O-])c21.[Ti+4]`, the concentration for total growth inhibition (TGI) in assay [1], in assay [2], in assay [3], in assay [4], in assay [5] and in assay [6] was above 100 µM in each case. The TGI in assay [7], in assay [8] and in assay [9] was above 100 µM each time.
In the case of `CC(C)(C)OC(=O)Cc1ccc2c(ccn2Cc2ccccc2)c1`, the TGI in [1], in assay [2], in assay [3], in assay [4], in assay [5] and in assay [6] was above 100 µM each time. The TGI in assay [7], in assay [8] and in assay [9] was above 100 µM throughout.
The term GI50 denotes the concentration giving 50% growth inhibition. `COc1ccc(C(=O)COc2cccc(/C=C3\COc4ccc5ccccc5c4C3=O)c2)cc1`: the GI50 in [1] was 17.4 µM; in [2] it was 4.21 µM; in assay [3], 3.63 µM; in [4] it was 80.7 µM; in [5] it was 5.41 µM; in assay [6] it was 3.11 µM. Moreover, the GI50 is 29.7 µM in [7], 2.87 µM in assay [8] and 16.3 µM in assay [9]. Besides, the TGI in assay [1] is above 100 µM; in [2], above 100 µM; in assay [3], 66.7 µM; in assay [4], above 100 µM; in assay [5], above 100 µM; in assay [6], 24.6 µM. Also, the results for the TGI in assay [7], in [8] and in [9] were above 100 µM, 63.6 µM and above 100 µM, respectively.
As for `CC(C)=CCC/C(=C/CC/C(C)=C/CCc1ccoc1)C(=O)O`, the TGI in [2], in assay [3], in assay [4], in assay [5], in assay [6] and in [7] was above 100 µM each time. Also, the TGI in assay [8] and in assay [9] was above 100 µM each time.
`COc1cc(NC(=O)c2cc(O)c(CC=C(C)C)c(O)c2)cc2c1O[C@]1(C)CC[C@@H](O)C(C)(C)[C@H]1C2`: the GI50 in assay [1] was 7.51 µM; in [2] it was 3.37 µM; in assay [3], 3.58 µM; in assay [4], 5.38 µM; in [5], 3.07 µM; in [6], 4.12 µM. Further, the GI50 in assay [7] is 5.2 µM; in assay [8], 1.25 µM; in assay [9] it was 2.41 µM. For the same molecule, the TGI in assay [1] is 54.9 µM; in assay [2], 15.4 µM; in assay [3] it was 34.1 µM; in assay [4], 48.7 µM; in assay [5] it was 19.1 µM; in [6] it was 18.4 µM. Moreover, the values for the TGI in assay [7], in [8] and in [9] were 30.9 µM, 3.85 µM and 8.27 µM, respectively.
For the molecule `O=C1NC(=O)c2ccc([N+](=O)[O-])c3cccc1c23`, the TGI in assay [1] stood at 31 µM; in [2] it was 23.9 µM; in [3] it was 32.7 µM; in [4], 33.7 µM; in assay [7] it was 49.2 µM; in assay [8], 32.8 µM. Moreover, the TGI in [9] amounted to 27 µM.
`O=C(CCl)Nc1ccc(Cl)cc1`: the GI50 in [1] is 2.11 µM; in assay [2], 2.7 µM; in assay [4] it was 3.13 µM; in assay [5], 1.56 µM; in assay [6], 8.06 µM; in assay [7], 2.01 µM. Moreover, the GI50 in assay [8] is 3.45 µM; in assay [9], 3.6 µM. In addition, the TGI in assay [1] worked out at 5.04 µM; in assay [2] it was 10.2 µM; in assay [4] it was 10.6 µM; in assay [5] it was 4.23 µM; in assay [6] it was 21 µM; in [7], 3.91 µM. Besides, the TGI in assay [8] worked out at 13.3 µM; in [9], 17 µM.
As to `CC(=O)[CH-]C(=O)c1ccccc1.CC(=O)[CH-]C(=O)c1ccccc1.O=C([O-])c1ccc([O-])cc1.O=C([O-])c1ccc([O-])cc1.[Ti+4]`, the GI50 in assay [1] was 84.3 µM; in assay [2], 41.4 µM; in assay [3] it was 33.5 µM; in assay [4], 75 µM; in assay [5], 28.9 µM; in assay [6] it was 25 µM. Also, the GI50 was 35.1 µM in assay [7], 41.6 µM in assay [8] and 37.2 µM in [9]. Moreover, the TGI was above 100 µM in assay [1]; above 100 µM in [2]; above 100 µM in assay [3]; above 100 µM in [4]; above 100 µM in [5]; 90.1 µM in assay [6]. Further, the TGI in [7], in assay [8] and in assay [9] was above 100 µM each time.
Take `COC(=O)C1=NC(=S)NC(c2ccccc2)C1c1nc2ccccc2s1` (stereo not drawn): the concentration for total growth inhibition (TGI) in [1], in assay [2], in [4], in assay [6], in assay [7] and in assay [10] was above 100 µM in each case. Moreover, the TGI in assay [8] and in assay [9] was above 100 µM each time.
In the case of `Cc1ccc(Nc2nc3c(s2)C(=O)c2ccccc2C3=O)c(C)c1`, the TGI stood at 33.1 µM in assay [1]; 43 µM in [3]; 30.6 µM in [4]; 35.4 µM in assay [5]; 33 µM in assay [6]; 30.5 µM in assay [7]. Further, the TGI in assay [8] was 29.4 µM; in [9], 29.5 µM.
In the case of `NCCCC[C@@H]1NC(=O)[C@H]2CCCN2C(=O)[C@H](Cc2ccccc2)NC(=O)[C@H](Cc2ccccc2)CNC1=O`, the GI50 in assay [1], in assay [2], in assay [3], in assay [4], in [5] and in assay [6] was above 100 µM each time. Further, the GI50 in [7], in assay [8] and in assay [9] was above 100 µM each time. In addition, the TGI in assay [1], in assay [2], in [3], in [4], in assay [5] and in assay [6] was above 100 µM throughout. For the same molecule, the TGI in assay [7], in assay [8] and in assay [9] was above 100 µM throughout.
Take `CC(C)N(C(=O)C12CC3CC(CC(C3)C1)C2)C(C)C`: the TGI in [1], in assay [2], in assay [3], in [4], in assay [5] and in assay [6] was above 50 µM throughout. The TGI in [7], in assay [8] and in assay [9] was above 50 µM each time.
With `Cc1ccc(N(C(=O)CC(=O)NN)C(=O)c2ccccc2Cl)cc1`, the TGI in [1], in [2], in [3], in [4], in assay [5] and in [6] was above 100 µM in each case. Moreover, the TGI in [7], in assay [8] and in assay [9] was above 100 µM each time.
Take `CN(C)c1ccc(N)cc1`: the GI50 in [1] is 4.04 µM; in assay [2], 2.67 µM; in [4], 4.38 µM; in assay [5] it was 3.94 µM; in assay [6], 3.25 µM; in [8], 2.37 µM. In assay [9], the GI50 is 4 µM. In addition, the concentration for total growth inhibition (TGI) in assay [1] worked out at 23.8 µM; in [2], 8.44 µM; in assay [4], 18 µM; in [5], 14.7 µM; in assay [6], 12.2 µM; in assay [8] it was 6.48 µM. The molecule further gave a TGI in assay [9] of 16.8 µM.
As for `O=C(O)CN(c1ccccc1)S(=O)(=O)c1ccccc1[N+](=O)[O-]`, the TGI in assay [1], in [4], in assay [5], in [6], in assay [8] and in assay [9] was above 100 µM in each case.
As to `Clc1nc(Cl)c2ncn(Cc3cccc(COc4cccc(OCc5cccc(Cn6cnc7c(Cl)nc(Cl)nc76)c5)c4)c3)c2n1`, the GI50 in assay [1] was 60.8 µM; in assay [3] it was 71.9 µM; in assay [4] it was 54.5 µM; in assay [5] it was 23.9 µM; in assay [6], 34.6 µM; in assay [7], 58.2 µM. The values for the GI50 in assay [8] and in assay [9] were above 100 µM and 60 µM, respectively. Besides, the TGI in assay [1], in [3], in assay [4], in assay [5], in assay [6] and in assay [7] was above 100 µM in each case. Also, the TGI in assay [8] and in assay [9] was above 100 µM in each case.
On to `C=CCCCCCCCCC(=O)NS(=O)(=O)c1ccccc1`, for which the TGI in assay [1], in assay [2], in [3], in [4], in assay [5] and in assay [6] was above 100 µM each time. For the same molecule, the TGI in assay [7], in [8] and in assay [9] was above 100 µM each time.
On to `Fc1cc(F)c(COc2cc(Cn3cnc4c(Cl)nc(Cl)nc43)ccc2C23CC4CC(CC(C4)C2)C3)cc1F`, for which the GI50 in assay [1] is 13.2 µM; in [2], 15.2 µM; in assay [4] it was 17.1 µM; in assay [5] it was 1.76 µM; in assay [6] it was 17.2 µM; in assay [7] it was 17.4 µM. In addition, the GI50 in assay [8] was 18 µM; in assay [9] it was 12.5 µM. Further, the TGI in [1] came to 27.5 µM; in assay [2], 28.5 µM; in [4], 30.8 µM; in assay [5], 3.91 µM; in assay [6] it was 32.6 µM; in [7], 31.2 µM. The TGI in assay [8] turned out to be 34 µM; in assay [9], 25.2 µM.
In the case of `Cc1noc(C)c1CCCOC1COc2ccccc2OCCOCCOc2ccccc2OC1`, the TGI in assay [1], in assay [3], in assay [4], in assay [5], in assay [6] and in assay [7] was above 100 µM each time. Also, the TGI in [8] and in assay [9] was above 100 µM throughout.
Take `N#Cc1nc(C2OC(COC(=O)c3ccccc3)C(OC(=O)c3ccccc3)C2OC(=O)c2ccccc2)oc1N` (stereo not drawn): the TGI in [1], in [2], in assay [3], in assay [4], in [5] and in assay [6] was above 100 µM in each case. The TGI in [7], in [8] and in [9] was above 100 µM in each case.
As to `COc1ccc(C(=O)c2cc(C)c(OC)c(C)c2)c(OC)c1N(C(=O)C(Cl)Cl)C(=O)C(Cl)Cl`, the GI50 was 0.101 µM in [1]; 0.0772 µM in [2]; 0.0487 µM in assay [3]; 0.0699 µM in [4]; 0.159 µM in assay [5]; 0.0461 µM in assay [6]. Besides, the GI50 in assay [7] is 0.0666 µM; in [8], 0.0323 µM; in [9] it was 0.0605 µM. Moreover, the TGI was above 100 µM in assay [1]; above 58.8 µM in [2]; above 100 µM in assay [3]; above 100 µM in [4]; above 100 µM in [5]; above 100 µM in assay [7]. In addition, the TGI in [8] and in [9] was above 100 µM throughout.
For `CC(O)C(NC(=O)C(Cc1ccccc1)NC(=O)C(NC(=O)C(CCCCN)NC(=O)C(Cc1c[nH]c2ccccc12)NC(=O)C(Cc1ccc(O)cc1)NC(=O)C(Cc1ccc(Cl)cc1)NC(=O)C(N)Cc1ccccc1)C(C)O)C(N)=O` (stereo not drawn) (H-F[Phe(4-Cl)]YWKTFT-NH2; configuration not given here), the TGI in [1] amounted to 44.8 µM; in assay [2], 49 µM; in assay [3] it was 28.9 µM; in assay [4] it was 40.9 µM; in assay [6], 33.5 µM; in [7], 38.5 µM. The TGI in assay [8] was determined as 21.3 µM; in [9], 39.8 µM.

For the origin of these results see PubChem BioAssay (NCI).
